Experimental data: patent US11685766B2, “14-3-3 targeting peptides for cancer treatment” (Creighton University, priority 2019, dated 2023)
Peptide text beside a SMILES is read from it.

How the values were obtained:
[1] = target: T1, 14-3-3ε heterodimerization (Homo sapiens, UniProt P62258); assay: Co-immunoprecipitation / immunoblot of 14-3-3ε heterodimerization; format: cell-based; settings: SCC12B.2 cells, 20 μM, 48 hours, vs vehicle
T1 construct: endogenous in cells; host or cells: SCC12B.2
T1 sequence (P62258 1-255): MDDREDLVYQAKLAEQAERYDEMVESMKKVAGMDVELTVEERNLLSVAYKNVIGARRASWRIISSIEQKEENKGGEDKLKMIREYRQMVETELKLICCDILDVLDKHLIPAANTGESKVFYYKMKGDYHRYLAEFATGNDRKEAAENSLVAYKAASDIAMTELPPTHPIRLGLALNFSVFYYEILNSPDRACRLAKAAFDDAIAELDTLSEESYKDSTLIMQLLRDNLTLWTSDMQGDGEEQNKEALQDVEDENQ
Method: Co-Immunoprecipitation was performed using a Dynabeads Protein G Immunoprecipitation kit (Life Technologies, Carlsbad, Calif., USA). Beads were coupled to antibodies targeting 14-3-3ε (Fisher Scientific, Waltham, Mass., USA) or Akt (Thermo Fisher) at a ratio of 7 μg of antibody for every 1 mg of beads according to the manufacturers protocol. SCC12B.2 cells were treated with vehicle (20 mM Tris buffer, pH 7.5) or fresh ES1P2 targeting peptide daily at the IC50 concentration for 48 hours in Opti-MEM I Reduced Serum Medium (Invitrogen) and collected by trypsinization. […]
Protein was collected by either standard whole-cell lysis using ice-cold radioimmunoprecipitation assay (RIPA) lysis buffer supplemented with protease (Roche Life Scientific) and phosphatase inhibitors (NaF, Na3VO4) or by nuclear/cytosolic extraction using the NE-PER Nuclear and Cytoplasmic Protein Extraction Reagent Kit according to the manufacturer's protocol (Pierce, Rockford, Ill., USA). […] Protein concentration was assessed with the Bradford assay. […] Bands were detected using horseradish peroxidase-conjugated secondary antibodies (IgG mouse or rabbit) (Cell Signaling) and visualized using western lightning plus chemiluminescent reagent (MidSci, Valley Park, Mo., USA) and signal read on a Chemidoc XRS Molecular Imager (Bio-Rad Laboratories, Hercules, Calif., USA).

[2] = target: T2, 14-3-3ε binding to CDC25A (Homo sapiens, UniProt P62258); assay: Co-immunoprecipitation / immunoblot of CDC25A bound to 14-3-3ε; format: cell-based; settings: SCC12B.2 cells; for amount of CDC25A on immunoblots of immunoprecipitated 14-3-3ε: pS 30 μM, pT printed 2004, 48 hours, vs vehicle, P≤0.05
T2 construct: endogenous in cells; host or cells: SCC12B.2
T2 sequence (P62258 1-255): T1 sequence (P62258 1-255)
Method: Co-Immunoprecipitation (Co-IP) was performed using a Dynabeads Protein G Immunoprecipitation kit (Life Technologies, Carlsbad, Calif., USA). Beads were coupled to antibodies targeting 14-3-3ε (Fisher Scientific, Waltham, Mass., USA) or CDC25A (Santa Cruz Biotechnology, Dallas, Tex., USA) at a ratio of 7 μg of antibody for every 1 mg of beads according to the manufacturers protocol. SCC12B.2 cells were treated with vehicle (20 mM Tris buffer, pH 7.5) or fresh peptide (pS or pT) daily at the IC50 concentration for 48 hours in Opti-MEM I Reduced Serum Medium (Invitrogen) and collected by trypsinization. One hundred mg of cells were lysed in 1×IP buffer supplemented with 100 mM sodium chloride, 2 mM dithiothreitol, 1 mM magnesium chloride and protease/phosphatase inhibitors. Immunoprecipitation reactions were carried out using 1.5 mg of antibody-coupled beads incubated with 100 mg of cell lysate at 4° C. for 30 minutes. Negative controls were immunoprecipitation reactions using beads coupled to IgG isotype control antibody (rabbit), and whole lysate from immunoprecipitation input was loaded directly onto a gel was used as a positive control.
Protein was collected by either standard whole-cell lysis using ice-cold radioimmunoprecipitation assay (RIPA) lysis buffer supplemented with protease (Roche Life Scientific) and phosphatase inhibitors (NaF, Na3VO4) or by nuclear/cytosolic extraction using the NE-PER Nuclear and Cytoplasmic Protein Extraction Reagent Kit according to the manufacturer's protocol (Pierce, Rockford, Ill., USA). Tissue protein was extracted by using a tissue grinder to lyse cells in 100 μL of RIPA lysis buffer for every 1 mg of tissue. […] Protein concentration was assessed with the Bradford assay. […] Bands were detected using horseradish peroxidase-conjugated secondary antibodies (IgG mouse or rabbit) (Cell Signaling) and visualized using western lightning plus chemiluminescent reagent (MidSci, Valley Park, Mo., USA) and signal read on a Chemidoc XRS Molecular Imager (Bio-Rad Laboratories, Hercules, Calif., USA).

Row | 14-3-3ε heterodimerization [1] | SMILES | 14-3-3ε precipitation, pS-treated compared to pT-treated samples ([2]; 48 hours) | amount of CDC25A on immunoblots of immunoprecipitated 14-3-3ε [2]
1 | reduces 14-3 3ε heterodimerization | NCCCC[C@H](NC(=O)[C@H](Cc1c[nH]c2ccccc12)NC(=O)[C@H](Cc1ccc(O)cc1)NC(=O)[C@@H](N)Cc1c[nH]c2ccccc12)C(N)=O [ES1P2, Trp-Tyr-Trp-Lys-NH2] (H-WYWK-NH2) | – | –
2 | – | CSCC[C@H](NC(=O)[C@H](CCCNC(=N)N)NC(=O)[C@@H]1CCCN1C(=O)[C@H](C)NC(=O)[C@H](COP(=O)(O)O)NC(=O)[C@H](CC(N)=O)NC(=O)[C@H](CCC(N)=O)NC(=O)[C@H](CCCNC(=N)N)NC(=O)[C@H](CCC(N)=O)NC(=O)[C@@H](NC(C)=O)[C@@H](C)O)C(=O)N[C@@H](CC(C)C)C(=O)N[C@@H](CO)C(=O)N[C@@H](CO)C(=O)N[C@@H](CC(N)=O)C(N)=O [pS, Ac-Thr-Gln-Arg-Gln-Asn-Ser-(PO3^2−)-Ala-Pro-Arg-Met-Leu-Ser-Ser-Asn-NH2] (HELM PEPTIDE1{[ac].T.Q.R.Q.N.[O=C([C@H](COP(=O)(O)O)N[*:1])[*:2]].A.P.R.M.L.S.S.N.[am]}$$$$V2.0) | less 14-3-3ε precipitation | decreases the amount of CDC25A
3 | – | CC(=O)N[C@@H](CCCNC(=N)N)C(=O)N[C@H](C(=O)N[C@@H](CCCCN)C(=O)N[C@@H](CO)C(=O)N[C@@H](CCCNC(=N)N)C(=O)N[C@H](C(=O)N[C@@H](Cc1c[nH]c2ccccc12)C(=O)N[C@@H](C)C(=O)NCC(=O)N[C@@H](CCC(=O)O)C(=O)N[C@@H](CCCCN)C(=O)N[C@@H](CO)C(=O)N[C@@H](CCCCN)C(=O)N[C@@H](CCCNC(=N)N)C(N)=O)[C@@H](C)OP(=O)(O)O)[C@@H](C)O [pT, Ac-Arg-Thr-Lys-Ser-Arg-Thr(PO3^2−)-Trp-Ala-Gly-Glu-Lys-Ser-Lys-Arg-NH2] (HELM PEPTIDE1{[ac].R.T.K.S.R.[C[C@@H](OP(=O)(O)O)[C@H](N[*:1])C(=O)[*:2]].W.A.G.E.K.S.K.R.[am]}$$$$V2.0) | – | decreases the amount of CDC25A
